# Reference: patent US4680389A, “Temperature stable crystalline di(1-methyl-2-pyrralidinone) and di(N-formylpyrrolidine) adducts of cephalosporin derivatives” (priority 1986, dated 1987)
# Columns and labels:
# [1] = Stabilities at elevated temperatures (percent potency loss by HPLC, dry containers); assay type: physicochemical
# Protocol: Elevated temperature stabilities were determined by storing the preparations in dry containers (1 dram screw cap vials) at temperatures and for time periods as denoted below. Potency losses or gains were determined by HPLC. […] Each compound form tested was prepared in accordance with the example which is designated.
# Rat = experiment: Toxicity data (LD50) in rat; assay type: in vivo; conditions: route not stated
# Protocol: (§1) Toxicity data (LD50) was determined for the following compounds which are utilized in the instant invention or prepared according to the instant invention.
# [2] = Toxicity data (LD50) in rat; assay type: in vivo; conditions: in vivo, route not stated
# Protocol: as §1
# [3] = HPLC stability of Example 1 di(1-methyl-2-pyrrolidinone) adduct at 70° C.; assay type: physicochemical
# Protocol: 1.0 g of the sulfuric acid addition salt of the zwitterion is vigorously slurried in 10 ml of 1-methyl-2-pyrrolidinone (NMP-2) at 25° C.-45° C. The crystalline mass is mixed with 0.49 ml (2.02 molar equivalents) of triethylamine (TEA) over a period of 0.5 to 1.5 hours. The mixture is seeded with 1-methyl-2-pyrrolidinone adduct and vigorously stirred for 6 to 24 hours. The crystals are then separated by vacuum filtration, washed with two 3 ml portions of 1-methyl-2-pyrrolidinone, two 5 ml portions of ether and vacuum dried at 45° to 55° C. for 2 hours.
# [4] = Stability in aqueous solution; assay type: physicochemical; conditions: 250 mg/ml aqueous solution, ambient pH 4 to 5, at least six hours at 25° C.; 360 min
# Excerpt: These crystalline adducts display acceptable stability when they are placed in solution.
# various organisms = conditions: cited from earlier work
# [5] = elevated temperatures (e.g. 45° C. and above), one week, dry powder; 10080 min; cited from earlier work
smiles,measurement,setting,value
CO/N=C(\C(=O)NC1C(=O)N2C(C(=O)[O-])=C(C[N+]3(C)CCCC3)CSC12)c1csc(N)n1 (centres unmarked),PERCENT LOSS,"[1]; 37° C., 1 month, 43200 min, listed as Di(NFP) Adduct",0%
same,PERCENT LOSS,"[1]; 45° C., 1 week, 10080 min, listed as Di(NFP) Adduct",0-3%
same,PERCENT LOSS,"[1]; 45° C., 4 weeks, 40320 min, listed as Di(NFP) Adduct",3.5-5.9%
same,PERCENT LOSS,"[1]; 56° C., 1 week, 10080 min, listed as Di(NFP) Adduct",7.1%
same,PERCENT LOSS,"[1]; 56° C., 2 weeks, 20160 min, listed as Di(NFP) Adduct",9.3%
same,PERCENT LOSS,"[1]; 70° C., 1 day, listed as Di(NFP) Adduct, 1440 min",1.5%
same,PERCENT LOSS,"[1]; 70° C., 3 days, listed as Di(NFP) Adduct, 4320 min",0-4.4%
same,degraded at 672 h,"[1]; dry solid, 56° C., 4 weeks",18.1%
same,Rat LD50,Rat; listed as Di(N--formyl pyrrolidine) adduct,495 mg/kg
"CN1CCCC1=O [1-Methyl-2-pyrrolidinone, 1-methyl-2-pyrrolidinone]",LD50,[2],> 2000 mg/kg
same,Rat LD50,Rat,< 2500 mg/kg
"CN1CCCC1=O.CN1CCCC1=O.CO/N=C(\C(=O)NC1C(=O)N2C(C(=O)[O-])=C(C[N+]3(C)CCCC3)CSC12)c1csc(N)n1 (centres unmarked) [Di(1-methyl-2-pyrrolidinone) adduct, di(1-methyl-2-pyrrolidinone) adduct of 7-[(Z)-2-methoxyimino-2-(2-aminothiazol-4-yl)acetamido-]3-[(1-methyl-1-pyrrolidinium)methyl]-3-cephem-4-carboxylate]",PERCENT LOSS,"[1]; 37° C., 3 months, 129600 min",1.2%
same,PERCENT LOSS,"[1]; 45° C., 4 weeks, 40320 min",1.6%
same,PERCENT LOSS,"[1]; 45° C., 6 weeks, 60480 min",3.0%
same,PERCENT LOSS,"[1]; 45° C., 8 weeks, 80640 min",0-3%
same,PERCENT LOSS,"[1]; 56° C., 1 week, 10080 min",2.1%
same,PERCENT LOSS,"[1]; 56° C., 2 weeks, 20160 min",3.4%
same,PERCENT LOSS,"[1]; 56° C., 4 weeks, 40320 min",4.2%
same,PERCENT LOSS,"[1]; 56° C., 6 weeks, 60480 min",7.0%
same,PERCENT LOSS,"[1]; 56° C., 8 weeks, 80640 min",0.9%
same,PERCENT LOSS,"[1]; 70° C., 1 day",0%
same,PERCENT LOSS,"[1]; 70° C., 2 days",2.1%
same,PERCENT LOSS,"[1]; 70° C., 3 days",2.1%
same,PERCENT LOSS,"[1]; 70° C., 5 days",2.1%
same,PERCENT LOSS,"[1]; 100° C., 1 day",13-16%
same,HPLC Stability % Loss,[3]; 1 Day,0-2.3%
same,HPLC Stability % Loss,[3]; 3 Days,5-6.5%
same,Rat LD50,Rat,663 mg/kg
same,potency loss in aqueous solution,[4],less than 10%
"O=CN1CCCC1 [N--Formyl pyrrolidine, N-formyl pyrrolidine]",LD50,[2],> 500 mg/kg
same,Rat LD50,Rat,< 1000 mg/kg
"CO/N=C(\C(=O)NC1C(=O)N2C(C(=O)[O-])=C(C[N+]3(C)CCCC3)CSC12)c1csc(N)n1 (centres unmarked) [Zwitterion (Amorphous), 7-[(Z)-2-methoxyimino-2-(2-aminothiazol-4-yl)acetamido]-3-[(1-methyl-1-pyrrolidinium)methyl]-3-cephem-4-carboxylate, reference compound]",PERCENT LOSS,"[1]; 45° C., 1 week, 10080 min",34.1%
same,PERCENT LOSS,"[1]; 45° C., 4 weeks, 40320 min",71%
same,PERCENT LOSS,"[1]; 56° C., 1 week, 10080 min",49.6%
same,PERCENT LOSS,"[1]; 70° C., 1 day, 1440 min",34.5%
same,PERCENT LOSS,"[1]; 70° C., 2 days, 2880 min",46.2%
same,PERCENT LOSS,"[1]; 70° C., 3 days, 4320 min",55.2%
same,degraded at 24 h,"[1]; dry solid, 100° C., 1 day",100%
"CO/N=C(\C(=O)NC1C(=O)N2C(C(=O)[O-])=C(C[N+]3(C)CCCC3)CSC12)c1csc(N)n1 (centres unmarked) [Zwitterion (Crystalline), 7-[(Z)-2-methoxyimino-2-(2-aminothiazol-4-yl)acetamido]-3-[(1-methyl-1-pyrrolidinium)methyl]-3-cephem-4-carboxylate]",temperature stability of crystalline vs amorphous form,[1],more temperature stable than the amorphous form
same,PERCENT LOSS,"[1]; 37° C., 1 month, 43200 min",20.0%
same,PERCENT LOSS,"[1]; 45° C., 1 week, 10080 min",14.2%
same,PERCENT LOSS,"[1]; 56° C., 1 week, 10080 min",25.6%
same,PERCENT LOSS,"[1]; 56° C., 2 weeks, 20160 min",30.0%
same,PERCENT LOSS,"[1]; 70° C., 2 days, 2880 min",13.5%
same,PERCENT LOSS,"[1]; 70° C., 3 days, 4320 min",20.5%
same,degraded at 336 h,"[1]; dry solid, 45° C., 2 weeks",23%
"CO/N=C(\C(=O)NC1C(=O)N2C(C(=O)[O-])=C(C[N+]3(C)CCCC3)CSC12)c1csc(N)n1 (centres unmarked) [Zwitterion, 7-[(Z)-2-methoxyimino-2-(2-aminothiazol-4-yl)acetamido]-3-[(1-methyl-1-pyrrolidinium)methyl]-3-cephem-4-carboxylate]",LD50,[2],665 mg/kg
same,utility against various organisms,"various organisms; data in U.S. Pat. No. 4,406,899",broad spectrum utility against various organisms
same,spectrum of activity compared with ceftazidime and cefotaxime,various organisms; zwitterion form vs ceftazidime and cefotaxime,broader spectrum activity than ceftazidime and cefotaxime
same,loss of activity on storage,[5],≥ 30%
